The source of these data is publication PMC4111603 (PLoS ONE, 2014).

One data set concerns the target T1, Ovine COX-1 (Ovis aries, UniProt P05979).
T1 construct: purchased Cayman Chemical Co. 60100
T1 sequence (P05979 25-600): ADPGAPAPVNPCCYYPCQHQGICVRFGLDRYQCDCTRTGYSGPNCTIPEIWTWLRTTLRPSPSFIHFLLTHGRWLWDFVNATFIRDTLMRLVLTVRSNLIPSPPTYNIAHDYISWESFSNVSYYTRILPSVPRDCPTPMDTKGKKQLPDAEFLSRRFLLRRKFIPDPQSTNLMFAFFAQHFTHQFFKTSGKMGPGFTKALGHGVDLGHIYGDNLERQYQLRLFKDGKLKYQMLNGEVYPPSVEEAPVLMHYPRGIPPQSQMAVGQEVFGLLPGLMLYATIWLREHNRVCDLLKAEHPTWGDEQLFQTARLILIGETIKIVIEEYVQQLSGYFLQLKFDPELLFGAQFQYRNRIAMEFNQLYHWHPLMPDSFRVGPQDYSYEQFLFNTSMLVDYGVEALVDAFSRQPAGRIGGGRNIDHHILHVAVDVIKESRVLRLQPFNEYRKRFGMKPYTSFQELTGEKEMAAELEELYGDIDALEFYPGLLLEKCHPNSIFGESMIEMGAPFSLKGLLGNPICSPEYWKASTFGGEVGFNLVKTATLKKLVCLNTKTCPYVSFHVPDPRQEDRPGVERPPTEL
As to the kind of experiment: COX-1 oxygenation of arachidonic acid, oxygen electrode. The following applies: for COX-1 activity (% of control): 10 µM AA, initial activity 10-30 s, mean ± s.e.m., n = 3; for inhibition at 300 µM: 300 µM compound, read-out: inhibition of COX-1-catalysed oxygenation of arachidonic acid. It counts as biochemical. The protocol:
(§1) The assay was performed according to Meade et al. with minor modifications using an oxygen electrode chamber with integral stirring (Oxygraph System, Hansatech Instruments, King’s Lynn, U.K.). The electrode was calibrated to ambient temperature and air pressure. Samples were prepared in 0.1 M Tris-HCl buffer pH 7.4 containing 1 µM haematin, 2 mM phenol, 5 mM EDTA, 10 µM substrate (AA or 2-AG) (final assay volume was 2 ml). After addition of test substance dissolved in DMSO (final assay concentration 1%) a baseline was established for 5 min before initiation of reaction by addition of 200 units COX-1 or COX-2. Change in oxygen consumption was monitored for approximately 5 min.
(§2) FAAH inhibition was calculated using log(inhibitor) vs. response with variable slope (four parameters) algorithm in the GraphPad Prism computer program (GraphPad Software Inc., San Diego, CA. USA). […] The two curves were compared by Akaike’s informative criteria and the best fit was chosen. Initial COX activities were calculated as the change in oxygen tension between 10 and 30 seconds after addition of enzyme.

The target in data set [1] is T2, human recombinant COX-2 (Homo sapiens, UniProt P35354).
T2 construct: purchased Cayman Chemical Co. 60122
T2 sequence (P35354 18-604): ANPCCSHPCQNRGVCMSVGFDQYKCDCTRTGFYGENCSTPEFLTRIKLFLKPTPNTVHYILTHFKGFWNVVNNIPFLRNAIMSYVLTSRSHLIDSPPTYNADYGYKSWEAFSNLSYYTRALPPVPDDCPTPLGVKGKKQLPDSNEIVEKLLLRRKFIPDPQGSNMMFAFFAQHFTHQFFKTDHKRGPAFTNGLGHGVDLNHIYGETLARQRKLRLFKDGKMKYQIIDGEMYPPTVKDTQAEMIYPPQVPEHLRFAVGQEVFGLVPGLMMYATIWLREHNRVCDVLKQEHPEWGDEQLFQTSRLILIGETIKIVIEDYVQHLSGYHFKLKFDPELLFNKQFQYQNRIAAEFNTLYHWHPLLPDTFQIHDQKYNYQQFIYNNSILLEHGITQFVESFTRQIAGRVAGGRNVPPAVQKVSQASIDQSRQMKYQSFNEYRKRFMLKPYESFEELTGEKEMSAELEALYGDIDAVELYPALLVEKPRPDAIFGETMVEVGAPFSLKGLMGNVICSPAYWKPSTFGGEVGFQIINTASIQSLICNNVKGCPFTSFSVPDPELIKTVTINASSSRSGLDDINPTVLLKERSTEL
In words: COX-2 oxygenation of arachidonic acid, oxygen electrode. It counts as biochemical. The following applies: for COX-2 activity (% of control): substrate AA 10 µM, initial activity 10-30 s, n = 3. As to the method: as §1, §2

For data set [2], the target named is T2, human recombinant COX-2. In words: COX-2 oxygenation of 2-AG, oxygen electrode. It is filed as biochemical. As to conditions: for COX-2 activity (% of control): substrate 2-AG 10 µM, initial activity 10-30 s, n = 3. The protocol:
as §1, §2

In the next data set the target is T3, rat brain FAAH (Rattus norvegicus, UniProt P97612).
T3 construct: FAAH activity was quantified by measuring hydrolysis of tritium labelled AEA in rat brain homogenates; from tissue; host or cells: rat brain (minus cerebella), Wistar or Sprague-Dawley, washed membrane pellets
T3 sequence (P97612 1-579): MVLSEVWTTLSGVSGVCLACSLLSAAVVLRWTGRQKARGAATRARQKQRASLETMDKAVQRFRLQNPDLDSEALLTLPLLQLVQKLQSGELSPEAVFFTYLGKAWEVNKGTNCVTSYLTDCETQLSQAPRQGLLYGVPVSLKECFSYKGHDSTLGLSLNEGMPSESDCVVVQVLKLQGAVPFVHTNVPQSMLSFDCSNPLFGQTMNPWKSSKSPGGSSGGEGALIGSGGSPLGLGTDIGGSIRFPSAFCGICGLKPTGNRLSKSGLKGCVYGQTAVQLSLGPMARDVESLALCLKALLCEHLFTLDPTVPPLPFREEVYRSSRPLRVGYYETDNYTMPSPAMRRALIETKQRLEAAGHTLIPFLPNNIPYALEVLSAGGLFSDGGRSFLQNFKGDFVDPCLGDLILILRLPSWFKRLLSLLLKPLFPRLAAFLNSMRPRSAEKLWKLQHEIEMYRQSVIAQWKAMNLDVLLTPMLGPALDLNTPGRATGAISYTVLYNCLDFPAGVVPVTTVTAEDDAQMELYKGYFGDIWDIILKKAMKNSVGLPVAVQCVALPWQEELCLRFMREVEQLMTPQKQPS
In words: FAAH hydrolysis of [3H]AEA in rat brain homogenates. As to conditions: 0.5 µM AEA; for inhibition at 1000 µM: read-out: % inhibition of [3H]AEA hydrolysis @ 1000 µM, 1000 µM compound. It counts as biochemical. As to the method:
Brains (minus cerebella) from adult Wistar or Sprague-Dawley stored at −80°C were thawed, weighed and homogenized in cold buffer (20 mM HEPES, 1 mM MgCl2 pH 7.0). Homogenates were centrifuged at 35,000 g at 4°C for 20 min and the pellet was resuspended in homogenization buffer (repeated twice) before being incubated at 37°C for 15 min to degrade any endogenous substrate that might interfere with the FAAH assay. Following centrifugation, the pellets were resuspended in cold buffer (50 mM Tris-HCl, 1 mM EDTA, 3 mM MgCl2, pH 7.4). The protein concentration of each homogenates was determined according to the Bradford assay after which the samples were frozen in aliquots at −80°C until used for FAAH assay. Ethical permission for the animal experiments was obtained from the local animal research ethical committee (Umeå Ethical Committee for Animal Research, Umeå, Sweden).
The assay was performed according to Boldrup et al.. Homogenates (1 µg protein per assay) diluted in 10 mM Tris-HCl, 1 mM EDTA, pH 7.4 or pH 5.1 were mixed with test substance dissolved in DMSO (total concentration in assay 5%) at an ambient temperature of 4°C. Reactions were initiated by addition of AEA-[^3H] (assay concentration 0.5 µM) in 10 mM Tris-HCl, 1 mM EDTA, pH 7.4 containing 10 mg ml^−1 fatty acid-free bovine serum and incubation at 37°C which was allowed to proceed for 10 min. […] Blank samples contained buffer instead of homogenate and DMSO (5%). The assay volume of each sample was 200 µl. The pH values given in the text were determined by measurement at 37°C of scaled-up mixtures of homogenization and assay buffers. The reaction was terminated by addition of 400 µl activated charcoal (80 µl activated charcoal +320 µl 0.5 M HCl) and placement of samples on ice. Samples were kept in room temperature for 45–60 min before being centrifuged at 2500 rpm for 10 min. Aliquots (200 µl) of the supernatant was analyzed for tritium content by liquid scintillation with quench correction.
as §2

The subject of data set [3] is COX-2. The following applies: read-out: IC50, 2-AG oxygenation; cited from earlier work.
For data set [4], the system named is COX-2. The following applies: read-out: IC50, AA oxygenation by COX-2; cited from earlier work.
A further data set concerns COX-1. More on the design: method as in PMID 24120370. The following applies: read-out: IC50, AA oxygenation by COX-1; cited from earlier work.
The conditions of data set [5]: cited from earlier work.
The conditions of data set [6]: cited from earlier work; for urinary recovery: 24 h after administration of 400 mg of ibuprofen.
Another data set relates to FAAH. More on the design: method as in PMID 16997568. The following applies: pH 6 and 8; rat brain homogenates; cited from earlier work.
In another data set the test system is NAAA. On the set-up: method as in PMID 16154384. The following applies: cited from earlier work.
Data set [7] has as its system fatty acid amide hydrolase (FAAH). The following applies: cited from earlier work.
The subject of another data set is µ-opoid receptors. As to conditions: cited from earlier work.
Where [8] appears, read: pH 6.0, read-out: IC50, inhibition of [3H]AEA hydrolysis (converted).
[9] abbreviates: pH 6.0, read-out: pI50, inhibition of [3H]AEA hydrolysis (converted).

Like-named read-outs stand apart in the source and are kept apart here.

For orientation: inhibition means the percentage by which the read-out fell short of the control.

Regarding `CC(C(=O)O)c1ccc(C(O)C(C)C)cc1` (stereo not drawn) [1′-OH-Ibuprofen, 2-[4-(1-hydroxy-2-methylpropyl)phenyl]propionic acid], the “COX-1 activity (% of control)” value on Ovine COX-1 (100 µM NSAID) was 112±21 % of control; on Ovine COX-1 (300 µM NSAID), 81±21 % of control; on Ovine COX-1 (1000 µM NSAID) it was 102±18 % of control. Also, the inhibition at 300 µM on Ovine COX-1 was 19%. Also, the “COX-2 activity (% of control)” value was 91±8 % of control on human recombinant COX-2 [1] (100 µM NSAID), 59±13 % of control on human recombinant COX-2 [1] (300 µM NSAID), 103±22 % of control at human recombinant COX-2 [2] (100 µM NSAID) and 108±15 % of control at human recombinant COX-2 [2] (300 µM NSAID). In addition, the IC50 on rat brain FAAH (setting [8]) is 340 µM; on rat brain FAAH (setting [9]), 339 µM. In addition, the inhibition at 1000 µM at rat brain FAAH (pH 7.3) amounted to 47 ± 0.8%.
As to `CC(C(=O)O)c1ccc(-c2ccccc2)c(F)c1` (racemic) [Flurbiprofen, (±)-2-flouro-α-methyl(1,1′-biphenyl)-4-acetic acid, reference compound], the “inhibition of COX-1” value on Ovine COX-1 (30 µM compound) is listed as “Complete inhibition”. Also, the IC50 is 28 µM on rat brain FAAH (setting [8]); 27.5 µM on rat brain FAAH (setting [9]); 51 µM at rat brain FAAH (pH 7.3, read-out: IC50, inhibition of [3H]AEA hydrolysis (converted)); 51.3 µM on rat brain FAAH (pH 7.3, read-out: pI50, inhibition of [3H]AEA hydrolysis (converted)); […] with COX-2 [3]; […] in the data set with COX-2 [4]. Also, in the data set on COX-1, the IC50 is […]. Besides, the “maximal plasma concentration (racemate equivalent of R- and S-enantiomers)” value in data set [5] (dose of 50 mg) is listed as […]. Further, the “share of the dose recovered in the urine” value in [6] (flurbiprofen 50 mg a day for 10 consecutive days) is 23%.
Turning to `CC(Cc1ccc(C(C)C(=O)O)cc1)C(=O)O` (stereo not drawn) [Carboxyibuprofen, 2-[4-(2-carboxypropyl)phenyl]propionic acid], the inhibition at 300 µM at Ovine COX-1 stood at 4%. Further, at human recombinant COX-2 [1] (10 µM compound, Fig. S2, preliminary, two experiments), the “effect on rate of oxygenation of AA” value is “appeared to increase the rate of oxygenation”. Further, the “COX-2 activity (% of control)” value at human recombinant COX-2 [1] (100 µM NSAID) is reported as 132±16 % of control; at human recombinant COX-2 [1] (300 µM NSAID) it was 139±41 % of control; at human recombinant COX-2 [2] (100 µM NSAID) it was 105±19 % of control; on human recombinant COX-2 [2] (300 µM NSAID), 132±17 % of control. Moreover, the “effect on rate of oxygenation of 2-AG” value on human recombinant COX-2 [2] (300 µM compound, Fig. S1) is “appeared to increase the rate of oxygenation”. Moreover, the IC50 on rat brain FAAH (setting [8]) was 410 µM; on rat brain FAAH (setting [9]) it was 417 µM. On rat brain FAAH (pH 7.3), the inhibition at 1000 µM worked out at 31 ± 4%. Besides, the urinary recovery in [6] is on record as 40%.
As to `NC(=O)c1cccc(-c2cccc(OC(=O)NC3CCCCC3)c2)c1` [URB597], in the data set on FAAH, the “inhibition of AEA hydrolysis” value is recorded as “completely inhibits”. In addition, in the data set with NAAA, the “activity towards NAAA” value is given as “lacks activity”.
In the case of `Cc1cccnc1NC(=O)C(C)c1ccc(CC(C)C)cc1` (stereo not drawn), the “potency as FAAH inhibitor at pH 6 versus pH 8” value in data set [7] is reported as “slightly less potent inhibitor of FAAH at pH 6 than at pH 8”.
With `CN1CC[C@]23c4c5ccc(O)c4O[C@H]2[C@@H](O[C@@H]2O[C@H](C(=O)O)[C@@H](O)[C@H](O)[C@H]2O)C=C[C@H]3[C@H]1C5` [6-glucuronide metabolite of morphine], the “potency relative to parent drug (morphine)” value in the data set with µ-opoid receptors is on record as 2–4 times.
As to `CC(C)Cc1ccc(C(C)C(=O)O)cc1` (racemic) [Ibuprofen, (±)-2-(4-Isobutylphenyl)propanoic acid], in data set [5] (200 mg single doses of two different ibuprofen preparations), the peak plasma concentration is 110 to 150 µM. The urinary recovery in data set [6] is given as 11%. Moreover, the IC50 in data set [7] (read-out: potency, inhibition of AEA hydrolysis by FAAH) is 270 µM.
